In patent publication US20260174677A1, “METHODS OF TREATING INSULIN RESISTANCE AND ASSOCIATED DISORDERS” (The University of Melboune, priority 2022, published 2026):

Test system: CSPG-ECM components (mixed CSPGs, aggrecan, chondroitin 4-sulfate)
Test: CSPG-ECM binding assay with insulin-FITC in vitro
Protocol: To determine the interaction of insulin with CSPG-ECM components in vitro, flat-bottom 96-well plates were first coated with 10 μg/ml poly-L-lysine overnight, followed by a rinsing with water. A purified CSPGs mix containing neurocan, phosphacan, versican and aggrecan (CC117, Merck Millipore, MA), purified aggrecan ([…], Merck Millipore, MA) or purified chondroitin 4-sulfate ([…], Selleck Chemicals, TX), were coated onto the 96-well plates at a concentration of 10 μg/ml for 4 h at RT, followed by a rinse with water. Insulin-FITC was incubated on plates containing ECM at concentrating ranging from 5 ng/ml-1 mg/ml for 2 h at RT and protected from light. Control wells contained either no ECM, bovine serum albumin (10 μg/ml) or poly-L-lysine alone. Wells were washed 3 times with water and imaged at 495 nm using a SPECTROstar Nano Microplate Reader (BMG Labtech, Germany). To digest CSPG-ECM or to negate CSPG-ECM negative charge. wells were incubated with either chABC (0.5 U/ml) or poly-l-arginine (10 μg/ml, […], Merck Millipore, MA) for 1 h at 37° C. after the ECM coating, washed 3 times with water and then incubated with insulin-FITC.

Substance	binding of insulin-FITC to mixed CSPGs, aggrecan and C4S (2-hours incubation on coated plates)	insulin-ECM interactions (insulin-FITC with CSPG mix) in the presence of the agent (in the presence of poly-arginine)
insulin-FITC: fluorescein isothiocyanate tagged insulin	specific dose-dependent binding	
poly-arginine		significantly reduced
